System: Nannochloropsis sp.
Experiment: Pulsed chlorate stress with non-destructive lipid extraction of algae culture
Format: cell-based
Details: chlorate stress 18 hours under nutrient-replete conditions, repeated cycles, compared to identical system with the cycle carried out only once
Text: Nannochloropsis sp., a unicellular alga capable of producing large amounts of triacylglycerides, can be grown in f/2 medium with 1/3rd strength Instant Ocean under indoor lighting in 800 L raceway systems either kept moving with a submerged pump or paddlewheel. The algae are first grown under normal, nutrient replete conditions. Upon achieving a set concentration in culture sufficient for economical extraction (e.g., 1.0 g/L), an amount of chlorate sufficient to block nitrogen uptake by the Nannochloropsis is added. The Nannochloropsis culture is then allowed to grow under these conditions of nutrient assimilation inhibition for 18 hours. Twenty five percent of the algae culture is then removed and subjected to a non-destructive extraction process, while ammonia is added to the remaining in an amount sufficient to renew normal nitrogen uptake.
The removed portion of the culture is then mixed with dodecane or undecane or a mixture of the two for 15 minutes, during which sonication is applied for 2 seconds at 40 kHz. The mixture is partitioned with the upper solvent level removed by decanting, and the lower aqueous layer is then returned to the original algae culture, in which non-stressed growth has resumed as a result of the addition of ammonia. […]

[O-][Cl+2]([O-])O [chlorate]
levels of lipid obtained during subsequent cycles: higher levels of lipid
